Measurements reported in patent publication US9753018B2, “Selenium-containing compound” (Fisheries Research Agency, priority 2009, dated 2017).
Blank lines part the entries; values can stand above or below the molecule they belong to.

Tests used:
[1] = test system: human vessel endothelial cells (human umbilical cord vein HUV-EC-C); test: MTT assay of human vessel endothelial cells cultured with selenium compounds; type: cell-based
Procedure: In order to clarify the intracellular function of the selenium-containing compound (chemical formula 4: oxidized dimer) according to one embodiment of the invention, the selenium-containing compound (chemical formula 4: oxidized dimer) according to one embodiment of the invention was administered to human vessel endothelial cells (human umbilical cord vein HUV-EC-C, Health Science Research Resources Bank (http://www.jhsf.or.jp)).
Specifically, human vessel endothelial cells (10,000 cells/ml) were cultured on a 48-well plate using an MCDB131 medium (manufactured by Invitrogen) containing 10% fetal bovine serum. […] The passage number was set to 5 or less in order to maintain the properties of the human vessel endothelial cells.
The mitochondrial respiratory chain activity was determined using an MTT assay kit (manufactured by Nacalai Tesque, Inc.). Specifically, after culturing the human vessel endothelial cells, an MTT solution was added to the culture solution in an amount 1/10th of that of the culture solution, and the cells were cultured at 37° C. for 3 hours under 5% carbon dioxide. An equal amount of isopropanol was then added to the culture solution to extract a formazan dye, and the absorbance at 595 nm was determined.

[2] = test system: animal cells (ZE, YT, RTG-2, HUV-EC-C, AT2KY, TIG-S3, HEK293 cells); test: Cell proliferation-promoting effect on cultured cells (cell count by trypan blue staining); type: cell-based; settings: 0-100 nM, 0-5 days, fish and human cell lines
Procedure: Specifically, Danio rerio embryo ZE cells (National Research Institute of Fisheries Science), Seriola quinqueradiata tail fin YT cells (National Research Institute of Fisheries Science), and Oncorhynchus mykiss gonad RTG-2 cells (ATCCCCL55) were cultured in an L-15 medium containing 2% fetal bovine serum (30,000 cells/ml).
Human vessel endothelial cells (human umbilical cord vein HUV-EC-C, Health Science Research Resources Bank (http://www.jhsf.or.jp)) were cultured in an MCDB131 medium containing 10% fetal bovine serum (10,000 cells/ml).
(§1) AT cells derived from the skin of a human patient with ataxia telangiectasia syndrome (AT2KY, Health Science Research Resources Bank, JCRB0316), human skin TIG-S3 cells (Health Science Research Resources Bank, JCRB0544), and human kidney HEK293 cells (Health Science Research Resources Bank, JCRB9068) were cultured in a DMEM medium containing 10% fetal bovine serum (15,000 cells/ml).
The selenium-containing compound was added to each culture medium (containing 2% serum) so that the final concentration was 0, 5, 10, 25, 50, or 100 nM. […] The cell count was determined by trypan blue staining after culturing the cells for 0, 1, 2, 3, 4, and 5 days.

[3] = test system: hemoglobin of rabbit red cells; test: Metmyoglobin formation inhibitory effect (hemoglobin collected from red cells); type: cell-based; settings: 10, 25 or 50 nM in medium; hemoglobin solution incubated 37° C. 3 hours; versus control
Procedure: (§2) Preserved rabbit blood (Nippon Biotest Laboratories Inc.) was washed three times with a physiological saline solution (centrifuged at 2000 rpm and 4° C. for 5 min) to collect red cells. The red cells were suspended in a 4-fold amount of an RPMI medium (GIBCO (registered trademark) RPMI Medium 1640 manufactured by Invitrogen Co.), and cultured at 37° C. for 1 day using a carbon dioxide incubator. The selenium-containing compound was added to the culture solution so that the final concentration of the selenium-containing compound in the medium was 10, 25, or 50 nM (control: the selenium-containing compound was not added), and the cells were cultured. The red cells were then collected by centrifugation (2000×g, 4° C., 5 min), washed three times with a phosphate buffered saline (PBS), and collected by centrifugation. The red cells were hemolyzed by adding a 10 mM sodium phosphate buffer (pH: 7.2) to the red cell pellets, and centrifuged (15,000×g, 4° C., 10 min). The supernatant hemoglobin solution was then collected. The hemoglobin solution was diluted with a 100-fold amount of a 50 mM sodium phosphate buffer (pH: 6.8), and incubated at 37° C. for 3 hours. The absorbance ratio at 405 nm and 430 nm before and after incubation was measured, and the rate of metmyoglobin formation of the hemoglobin was calculated.

[4] = test system: heme protein (myoglobin, hemoglobin); test: Heme iron binding effect (Se/Fe determination in heme proteins); design: species or system Thunnus orientalis, rabbit, Physeter macrocephalus; settings: Se/Fe molar ratio of purified myoglobin and hemoglobin 0.003, 0.0003, 0.001
Procedure: Since it was confirmed that the selenium-containing compound has a heme protein auto-oxidation inhibitory effect (see “5. Metmyoglobin formation inhibitory effect of selenium-containing compound”), the binding capability of the selenium-containing compound with heme proteins was determined. Physeter macrocephalus (sperm whale) myoglobin available from SIGMA was used. 100 g of the dark muscle of Thunnus orientalis was mixed with a 5-fold amount of cold water, ground using a POLYTRON™ homogenizer, and centrifuged (6000×g, 10 min). The supernatant liquid was collected, and passed through a Sephacryl-100 column (16 mm×60 cm, manufactured by Pharmacia) that was equilibrated with a 0.05 M Tris-HCl buffer (pH: 7) containing 0.1 M salt to purify myoglobin derived from the dark muscle of Thunnus orientalis. […]
The selenium content in the Physeter macrocephalus myoglobin, the Thunnus orientalis myoglobin, the rabbit hemoglobin, and the Thunnus orientalis hemoglobin was measured. Selenium was detected from each sample. The elements contained in the Physeter macrocephalus myoglobin were measured by HPLC-ICP-MS.
The sample was wet-decomposed using nitric acid and hydrogen peroxide. Iron was quantitatively determined using an inductively coupled plasma atomic emission spectrometer (ICP-AES) (“ICPE-9000” manufactured by Shimadzu Corporation), and selenium was quantitatively determined by fluorometry. […]

[5] = DPPH radical-scavenging ability (RS50); type: biochemical; settings: for EC50: concentration at which DPPH radical-scavenging rate was 50%, room temperature 30 minutes, absorbance 595 nm
Procedure: In order to evaluate the chemical antioxidant ability of the selenium-containing compound (chemical formula 4: oxidized dimer) according to one embodiment of the invention, the 1,1-diphenyl-2-picrylhydrazyl (DPPH) radical-scavenging ability was measured (Hideo Kimura, Kota Naganuma, Masato Kojima, Masakazu Komatsu, Takumi Onda, and Masao Tsuji, Yamanashi Prefectural Industrial Technology Center Report, No. 22, pp. 59-63 (2008)).
Specifically, a selenium-containing compound (selenium content: 1.62 μM) derived from the meat of Xiphias gladius, a 10 mM aqueous solution of a water-soluble vitamin E derivative (commercially available antioxidant) (Trolox (registered trademark) (CAS No.: 56305-04-5, manufactured by Roche)), and a 4.36 mM aqueous solution of (+)-ergothioneine (CAS No.: 497-30-3, manufactured by SIGMA) were repeatedly 2-fold diluted with purified water to prepare 2 to 128-fold diluted test solutions.
10 μl of the test solution and 100 μl of a DPPH solution (0.35 mM, prepared by dissolving 1.38 mg of DPPH in 5 ml of ethanol, and adding 5 ml of a 0.1 M phosphate buffer (pH: 6.8) to the solution) were mixed on a 96-well micro test plate (BD Falcon (registered trademark), #1722, manufactured by Becton, and Dickinson and Company), and reacted at room temperature for 30 minutes in a dark place. The absorbance at 595 nm was then measured. A case of using purified water (absorbance: 0.59) as the test solution was determined that the DPPH radical-scavenging rate was 0%, and a case of using 10 mM Trolox (registered trademark) (absorbance: 0.19) as the test solution was determined that the DPPH radical-scavenging rate was 100%. The concentration at which the DPPH radical-scavenging rate was 50% was determined to be the RS50 of each substance, and taken as the antioxidant ability.

[6] = test system: AT cells derived from the skin of a human patient with ataxia telangiectasia syndrome (AT2KY); test: Cell proliferation-promoting effect on AT cells (cell count by trypan blue staining); type: cell-based; settings: 0-100 nM, 37° C., 0-5 days
Procedure: as §1
The selenium-containing compound was added to each culture medium (containing 2% serum) so that the final concentration was 0, 5, 10, 25, 50, or 100 nM. The Danio rerio embryo ZE cells were cultured at 25° C., the Seriola quinqueradiata tail fin YT cells were cultured at 20° C., and Oncorhynchus mykiss gonad RTG-2 cells were cultured at 15° C., and the human vessel endothelial cells, the AT cells derived from the skin of a human patient with ataxia telangiectasia syndrome, the human skin TIG-S3 cells, and the human kidney HEK293 cells were cultured at 37° C. The cell count was determined by trypan blue staining after culturing the cells for 0, 1, 2, 3, 4, and 5 days. […]

[7] = test system: rabbit red cells; test: Active oxygen level in red cells (hydroxyphenyl fluorescein); type: cell-based; settings: HPF fluorescence; versus control
Procedure: as §2, with “The red cells were hemolyzed by adding a 10 mM sodium phosphate buffer (pH: 7.2) to the red cell pellets, and centrifuged (15,000×g, 4° C., 10 min). The supernatant hemoglobin solution was then collected. The hemoglobin solution was diluted with a 100-fold amount of a 50 mM sodium phosphate buffer (pH: 6.8), and incubated at 37° C. for 3 hours.” left out
The active oxygen level in the red cells was also measured using hydroxyphenyl fluorescein (HPF) (manufactured by Sekisui Medical Co., Ltd.). […] The fluorescence intensity (excitation wavelength: 490 nm, fluorescence wavelength: 515 nm) due to the reaction product with active oxygen was measured, and used as an index of the active oxygen level.

[8] = test system: human vessel endothelial cells; test: Cell proliferation rate (MTT) under hydrogen peroxide oxidative stress; type: cell-based; settings: 5 mM, 1 hour pre-culture, then hydrogen peroxide 25 or 50 μM, 24 hours
Procedure: The in vivo antioxidant effect of the selenium-containing compound (chemical formula 4: oxidized dimer) according to one embodiment of the invention was determined using human vessel endothelial cells. Specifically, human vessel endothelial cells (10,000 cells/ml) were cultured on a 48-well plate using an MCDB131 medium containing 10% fetal bovine serum. The selenium-containing compound was added to the culture solution so that the final concentration was 5 mM (control: the selenium-containing compound was not added), and the cells were cultured at 37° C. for 1 hour under 5% carbon dioxide. After the addition of hydrogen peroxide to a final concentration of 25 or 50 μM, the cells were cultured at 37° C. for 24 hours under 5% carbon dioxide. The cell proliferation rate was then determined by the MTT assay. […] Specifically, it was confirmed that the selenium-containing compound (chemical formula 4: oxidized dimer) according to one embodiment of the invention has an in vivo antioxidant effect.

[9] = Solubility (physico-chemical properties); type: physicochemical; settings: solvents as named in the value

SMILES: O=[Se](O)O [sodium selenite]
- effect on cell proliferation (MTT) ([1]; 5 nM added to culture medium): cell death occurred

SMILES: N[C@@H](C[Se][Se]C[C@H](N)C(=O)O)C(=O)O [selenocystine]
- effect on cell proliferation (MTT) ([1]; 5 nM added to culture medium): cell death occurred

SMILES: C[Se]CC[C@H](N)C(=O)O [selenomethionine]
- effect on cell proliferation (MTT) ([1]; 5 nM added to culture medium): cell death occurred

SMILES: C[N+](C)(C)C(Cc1cnc([Se][Se]c2ncc(CC(C(=O)[O-])[N+](C)(C)C)[nH]2)[nH]1)C(=O)[O-] (stereo not shown) [chemical formula 4, 3,3′-(2,2′-diselanediylbis(1H-imidazole-5,2-diyl))bis(2-(trimethylammonio)propanoate)]
- cell proliferation (cell count) [2]: significantly promotes proliferation of animal cells
- rate of metmyoglobin formation of hemoglobin [3]: lower than that of the control
- effect on cell proliferation (MTT) ([1]; 5 mM, 24 hours, 37° C.): cell proliferation-promoting effect
- cytotoxicity compared with known selenium-containing compounds ([1]; versus selenious acid, selenocystine, selenomethionine): very low cytotoxicity
- binding to heme protein [4]: bound to a heme protein
- concentration giving radical-scavenging ability equal to L-(+)-ergothioneine, as fraction of ergothioneine concentration ([5]; DPPH, relative to L-(+)-ergothioneine): 1/907
- concentration giving radical-scavenging ability equal to Trolox, as fraction of Trolox concentration ([5]; DPPH, relative to water-soluble vitamin E derivative (Trolox)): 1/456
- radical-scavenging ability higher than Trolox by a factor ([5]; chemical test, relative to Trolox): about 500
- EC50 [5]: 1.9 µM
- proliferation of AT cells [6]: effect of promoting proliferation of the AT cells
- active oxygen level in the red cells [7]: lower than that of the control
- cellular proliferative potential under oxidative stress [8]: improved
- Solubility ([9]; in acetone and acetonitrile): scarcely soluble in acetone and acetonitrile
- Solubility ([9]; in water, ethanol and methanol): Soluble in water, ethanol, and methanol;

- EC50 [5]: 1700 µM
SMILES: C[N+](C)(C)[C@@H](Cc1c[nH]c(=S)[nH]1)C(=O)[O-] [L-(+)-ergothioneine, reference compound]

- EC50 [5]: 880 µM
SMILES: Cc1c(C)c2c(c(C)c1O)CCC(C)(C(=O)O)O2 (stereo not shown) [Trolox, 6-hydroxy-2,5,7,8-tetrametylchroman-2-carboxylic acid, reference compound]
